This passage reports MIC results from ChEMBL document CHEMBL1155160, “Novel complex class 1 integron bearing an ISCR1 element in an Escherichia coli isolate carrying the blaCTX-M-14 gene” (2007).

In brackets after ≈: the same amount, converted by molar mass. Some results are limits rather than exact numbers.

For the experiment, the system named is Escherichia coli. Put plainly: Antimicrobial activity against Escherichia coli AJE0508 isolate carrying ISCR1 element related blaCTX-M-14 gene by agar dilution method. The class given is functional. Background: In agar dilution the substance is mixed into plates at graded concentrations.
As to `C[C@@H](O)[C@H]1C(=O)N2C(C(=O)O)=C(SCCNC=N)C[C@H]12` [IMIPENEM ANHYDROUS], inhibition of growth (MIC) required 0.1 µg/mL (≈ 0.334 µM).

Turning to `CO[C@@]1(NC(=O)Cc2cccs2)C(=O)N2C(C(=O)O)=C(COC(N)=O)CS[C@@H]21` [CEFOXITIN], the minimal inhibitory concentration (MIC) (usually the least concentration at which growth counts as inhibited) was 8 µg/mL (≈ 18.7 µM).

As for `CO/N=C(\C(=O)N[C@@H]1C(=O)N2C(C(=O)O)=C(COC(C)=O)CS[C@H]12)c1csc(N)n1` [CEFOTAXIME], the MIC was 64 µg/mL (≈ 141 µM).

`CC(C)(O/N=C(\C(=O)N[C@@H]1C(=O)N2C(C(=O)[O-])=C(C[n+]3ccccc3)CS[C@H]12)c1csc(N)n1)C(=O)O` [CEFTAZIDIME] registered an MIC of 32 µg/mL (≈ 58.5 µM).

Compound `C[C@H]1[C@H](NC(=O)/C(=N\OC(C)(C)C(=O)O)c2csc(N)n2)C(=O)N1S(=O)(=O)O` [AZTREONAM] showed an MIC of 64 µg/mL (≈ 147 µM).

As for `CC1(C)S[C@@H]2[C@H](NC(=O)[C@H](N)c3ccccc3)C(=O)N2[C@H]1C(=O)O` [AMPICILLIN], the MIC was greater than 256 µg/mL.
